In patent publication US6525001B1, “Substituted pyrimidine and pyridine herbicides” (Mid-American Commercialization Corporation, priority 1997, dated 2003):

Legend:
Assay type in all cases: in vivo
Parameters in all cases: key: 0 is no effect; 10 is complete control
[1] = tested on: bedstraw (Galium aparine); test: Test B pre-/postemergence
Outline: (§1)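 Seeds were planted and sprayed preemergence, while plants at 2 to 18 cm (1- to 4-leaf stage) were sprayed postemergence at the same time, with test chemical in a non-phytotoxic solvent mixture containing surfactant. After twelve to sixteen days in a greenhouse, injury was rated visually against untreated controls on a 0–10 scale.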

[2] = tested on: broadleaf signalgrass (Brachiaria decumbens); test: Test B pre-/postemergence
Outline: as §1

[3] = tested on: cocklebur (Xanthium strumarium); test: Test B pre-/postemergence
Outline: as §1

corn (Zea mays) = test: Test B pre-/postemergence
Outline: as §1

[4] = tested on: giant foxtail (Setaria faberii); test: Test B pre-/postemergence
Outline: as §1

[5] = tested on: momingglory (Ipomoea hederacea); test: Test B pre-/postemergence
Outline: as §1

[6] = tested on: pigweed (Amaranthus retroflexus); test: Test B pre-/postemergence
Outline: as §1

rape (Brassica napus) = test: Test B pre-/postemergence
Outline: as §1

[7] = tested on: sugar beet (Beta vulgaris); test: Test B pre-/postemergence
Outline: as §1

[8] = tested on: velvetleaf (Abutilon theophrasti); test: Test B pre-/postemergence
Outline: as §1

[9] = tested on: wheat (Triticum aestivum); test: Test B pre-/postemergence
Outline: as §1

[10] = tested on: bamyardgrass (Echinochloa crus-galli); test: Test B flood test; settings: for Plant response rating, Barnyardgrass: Postemergence (flood test species)
Outline: (§2)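 Plants were grown to the 2-leaf stage before treatment with test chemical, then held in a greenhouse for twelve to sixteen days. Injury was visually rated against untreated controls on a 0–10 scale, where 0 is no effect and 10 is complete control.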

[11] = tested on: duck salad (Heteranthera limosa); test: Test B flood test; settings: for Plant response rating, Ducksalad: Postemergence (flood test species)
Outline: as §2

rice (Oryza sativa) = test: Test B flood test; settings: for Plant response rating, Rice: Postemergence (flood test species)
Outline: as §2

[12] = tested on: smallflower flatsedge (Cyperus difformis); test: Test B flood test; settings: for Plant response rating, S. Flatsedge: Postemergence (flood test species)
Outline: as §2

[13] = Preemergence, Rate 62 g/ha, scale of 0 to 10
[14] = Rate 62 g/ha, Postemergence (flood test)
[15] = Rate 125 g/ha, Postemergence section (flood test species)

Cc1cnc(-c2ccc(C(F)(F)F)cc2)nc1C(=O)c1ccc(C(F)(F)F)cc1 [Compound 74]
Plant response rating, Bedstraw [1, 13]: 0
Bedstraw plant response rating ([1]; Rate 62 g/ha, Postemergence): 1
Bedstraw plant response rating ([1]; Rate 125 g/ha, Postemergence): 1
Plant response rating, Bedstraw ([1]; Rate 125 g/ha, Preemergence): 0
Plant response rating, Bedstraw ([1]; Rate 250 g/ha, Postemergence): 2
Plant response rating, Bedstraw ([1]; Rate 250 g/ha, Preemergence): 0
Plant response rating, Bedstraw ([1]; Rate 500 g/ha, Postemergence): 6
Plant response rating, Bedstraw ([1]; Rate 500 g/ha, Preemergence): 0
B. signalgrass plant response rating ([2]; Rate 62 g/ha, Postemergence): 1
B. signalgrass plant response rating ([2]; Rate 62 g/ha, Preemergence): 0
B. signalgrass plant response rating ([2]; Rate 125 g/ha, Postemergence): 1
Plant response rating, B. signalgrass ([2]; Rate 125 g/ha, Preemergence): 0
Plant response rating, B. signalgrass ([2]; Rate 250 g/ha, Postemergence): 1
Plant response rating, B. signalgrass ([2]; Rate 250 g/ha, Preemergence): 0
Plant response rating, B. signalgrass ([2]; Rate 500 g/ha, Postemergence): 2
Plant response rating, B. signalgrass ([2]; Rate 500 g/ha, Preemergence): 0
Plant response rating, Cocklebur [3, 13]: 0
Cocklebur plant response rating ([3]; Rate 62 g/ha, Postemergence): 1
Cocklebur plant response rating ([3]; Rate 125 g/ha, Postemergence): 5
Plant response rating, Cocklebur ([3]; Rate 125 g/ha, Preemergence): 0
Plant response rating, Cocklebur ([3]; Rate 250 g/ha, Postemergence): 5
Plant response rating, Cocklebur ([3]; Rate 250 g/ha, Preemergence): 0
Plant response rating, Cocklebur ([3]; Rate 500 g/ha, Postemergence): 5
Plant response rating, Cocklebur ([3]; Rate 500 g/ha, Preemergence): 0
Plant response rating, Corn (corn (Zea mays); [13]): 0
Corn plant response rating (corn (Zea mays); Rate 62 g/ha, Postemergence): 1
Corn plant response rating (corn (Zea mays); Rate 125 g/ha, Postemergence): 1
Plant response rating, Corn (corn (Zea mays); Rate 125 g/ha, Preemergence): 0
Plant response rating, Corn (corn (Zea mays); Rate 250 g/ha, Postemergence): 1
Plant response rating, Corn (corn (Zea mays); Rate 250 g/ha, Preemergence): 0
Plant response rating, Corn (corn (Zea mays); Rate 500 g/ha, Postemergence): 1
Plant response rating, Corn (corn (Zea mays); Rate 500 g/ha, Preemergence): 0
Plant response rating, Giant foxtail [4, 13]: 0
Giant foxtail plant response rating ([4]; Rate 62 g/ha, Postemergence): 0
Giant foxtail plant response rating ([4]; Rate 125 g/ha, Postemergence): 0
Plant response rating, Giant foxtail ([4]; Rate 125 g/ha, Preemergence): 0
Plant response rating, Giant foxtail ([4]; Rate 250 g/ha, Postemergence): 1
Plant response rating, Giant foxtail ([4]; Rate 250 g/ha, Preemergence): 0
Plant response rating, Giant foxtail ([4]; Rate 500 g/ha, Postemergence): 1
Plant response rating, Giant foxtail ([4]; Rate 500 g/ha, Preemergence): 0
Plant response rating, Morningglory [5, 13]: 0
Morningglory plant response rating ([5]; Rate 62 g/ha, Postemergence): 1
Morningglory plant response rating ([5]; Rate 125 g/ha, Postemergence): 1
Plant response rating, Morningglory ([5]; Rate 125 g/ha, Preemergence): 0
Plant response rating, Morningglory ([5]; Rate 250 g/ha, Postemergence): 7
Plant response rating, Morningglory ([5]; Rate 250 g/ha, Preemergence): 0
Plant response rating, Morningglory ([5]; Rate 500 g/ha, Postemergence): 7
Plant response rating, Morningglory ([5]; Rate 500 g/ha, Preemergence): 0
Plant response rating, Redroot pigweed [6, 13]: 0
Redroot pigweed plant response rating ([6]; Rate 62 g/ha, Postemergence): 2
Redroot pigweed plant response rating ([6]; Rate 125 g/ha, Postemergence): 2
Plant response rating, Redroot pigweed ([6]; Rate 125 g/ha, Preemergence): 0
Plant response rating, Redroot pigweed ([6]; Rate 250 g/ha, Postemergence): 8
Plant response rating, Redroot pigweed ([6]; Rate 250 g/ha, Preemergence): 0
Plant response rating, Redroot pigweed ([6]; Rate 500 g/ha, Postemergence): 8
Plant response rating, Redroot pigweed ([6]; Rate 500 g/ha, Preemergence): 0
Plant response rating, Rape (rape (Brassica napus); [13]): 0
Rape plant response rating (rape (Brassica napus); Rate 62 g/ha, Postemergence): 1
Rape plant response rating (rape (Brassica napus); Rate 125 g/ha, Postemergence): 1
Plant response rating, Rape (rape (Brassica napus); Rate 125 g/ha, Preemergence): 0
Plant response rating, Rape (rape (Brassica napus); Rate 250 g/ha, Postemergence): 1
Plant response rating, Rape (rape (Brassica napus); Rate 250 g/ha, Preemergence): 0
Plant response rating, Rape (rape (Brassica napus); Rate 500 g/ha, Postemergence): 3
Plant response rating, Rape (rape (Brassica napus); Rate 500 g/ha, Preemergence): 0
Plant response rating, Sugarbeets [7, 13]: 0
Sugarbeets plant response rating ([7]; Rate 62 g/ha, Postemergence): 1
Sugarbeets plant response rating ([7]; Rate 125 g/ha, Postemergence): 2
Plant response rating, Sugarbeets ([7]; Rate 125 g/ha, Preemergence): 0
Plant response rating, Sugarbeets ([7]; Rate 250 g/ha, Postemergence): 6
Plant response rating, Sugarbeets ([7]; Rate 250 g/ha, Preemergence): 0
Plant response rating, Sugarbeets ([7]; Rate 500 g/ha, Postemergence): 7
Plant response rating, Sugarbeets ([7]; Rate 500 g/ha, Preemergence): 0
Plant response rating, Velvetleaf [8, 13]: 0
Velvetleaf plant response rating ([8]; Rate 62 g/ha, Postemergence): 1
Velvetleaf plant response rating ([8]; Rate 125 g/ha, Postemergence): 1
Plant response rating, Velvetleaf ([8]; Rate 125 g/ha, Preemergence): 0
Plant response rating, Velvetleaf ([8]; Rate 250 g/ha, Postemergence): 2
Plant response rating, Velvetleaf ([8]; Rate 250 g/ha, Preemergence): 0
Plant response rating, Velvetleaf ([8]; Rate 500 g/ha, Postemergence): 2
Plant response rating, Velvetleaf ([8]; Rate 500 g/ha, Preemergence): 0
Plant response rating, Wheat [9, 13]: 0
Wheat plant response rating ([9]; Rate 62 g/ha, Postemergence): 1
Wheat plant response rating ([9]; Rate 125 g/ha, Postemergence): 1
Plant response rating, Wheat ([9]; Rate 125 g/ha, Preemergence): 0
Plant response rating, Wheat ([9]; Rate 250 g/ha, Postemergence): 1
Plant response rating, Wheat ([9]; Rate 250 g/ha, Preemergence): 0
Plant response rating, Wheat ([9]; Rate 500 g/ha, Postemergence): 2
Plant response rating, Wheat ([9]; Rate 500 g/ha, Preemergence): 0
Barnyardgrass plant response rating [10, 14]: 0
Barnyardgrass plant response rating [10, 15]: 0
Plant response rating, Barnyardgrass ([10]; Rate 250 g/ha): 0
Plant response rating, Barnyardgrass ([10]; Rate 500 g/ha): 0
Ducksalad plant response rating [11, 14]: 0
Ducksalad plant response rating [11, 15]: 0
Plant response rating, Ducksalad ([11]; Rate 250 g/ha): 0
Plant response rating, Ducksalad ([11]; Rate 500 g/ha): 0
Rice plant response rating (rice (Oryza sativa); [14]): 0
Rice plant response rating (rice (Oryza sativa); [15]): 0
Plant response rating, Rice (rice (Oryza sativa); Rate 250 g/ha): 0
Plant response rating, Rice (rice (Oryza sativa); Rate 500 g/ha): 0
S. Flatsedge plant response rating [12, 14]: 0
S. Flatsedge plant response rating [12, 15]: 0
Plant response rating, S. Flatsedge ([12]; Rate 250 g/ha): 0
Plant response rating, S. Flatsedge ([12]; Rate 500 g/ha): 0
